Test results: publication PMC6346587, “Glucose 6-phosphate dehydrogenase 6-phosphogluconolactonase: characterization of the Plasmodium vivax enzyme and inhibitor studies” (Malaria Journal, 2019)

Biological target: T1, PfGluPho (Plasmodium falciparum, UniProt Q8IKU0)
T1 construct: made in house
T1 sequence (Q8IKU0 1-910): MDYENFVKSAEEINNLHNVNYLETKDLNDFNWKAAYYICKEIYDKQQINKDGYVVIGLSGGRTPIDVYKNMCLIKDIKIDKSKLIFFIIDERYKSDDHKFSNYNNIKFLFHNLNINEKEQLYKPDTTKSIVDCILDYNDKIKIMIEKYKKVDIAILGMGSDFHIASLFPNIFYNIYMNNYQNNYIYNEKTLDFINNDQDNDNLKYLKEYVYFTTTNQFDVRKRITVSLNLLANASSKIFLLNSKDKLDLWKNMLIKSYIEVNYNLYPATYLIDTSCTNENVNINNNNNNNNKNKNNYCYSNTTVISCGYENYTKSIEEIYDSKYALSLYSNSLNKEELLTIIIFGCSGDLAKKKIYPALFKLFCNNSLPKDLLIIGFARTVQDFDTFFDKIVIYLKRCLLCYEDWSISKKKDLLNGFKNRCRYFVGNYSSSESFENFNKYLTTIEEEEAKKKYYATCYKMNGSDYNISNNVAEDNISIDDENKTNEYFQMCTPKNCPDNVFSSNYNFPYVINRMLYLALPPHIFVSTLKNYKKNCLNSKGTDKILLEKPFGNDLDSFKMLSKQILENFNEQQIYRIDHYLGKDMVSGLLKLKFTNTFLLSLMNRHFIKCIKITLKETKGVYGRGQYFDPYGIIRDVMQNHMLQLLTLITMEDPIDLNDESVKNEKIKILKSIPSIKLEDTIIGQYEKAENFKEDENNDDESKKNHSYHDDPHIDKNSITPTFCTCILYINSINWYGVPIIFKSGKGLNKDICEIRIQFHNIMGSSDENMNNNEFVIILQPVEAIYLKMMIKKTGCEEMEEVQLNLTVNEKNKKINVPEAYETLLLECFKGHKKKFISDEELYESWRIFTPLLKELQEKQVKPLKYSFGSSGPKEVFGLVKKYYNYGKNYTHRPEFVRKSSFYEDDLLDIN
Experiment: PfGluPho G6PD activity inhibition assay
Format: biochemical
Description: To identify potential inhibitors of PvG6PD, compounds with already known effects on PfGluPho (ellagic acid and derivatives, ML304) were tested. Additionally, several compound libraries of the Helmholtz Center for Infection Research, Brunswick, were screened against PfGluPho using the high-throughput-compatible assay systems described in Preuss et al.. […] Based on structure-activity relationship studies, a set of new potential G6PD inhibitors (Fig. 8) was then synthesized and assessed. First, the IC50 values of the compounds were determined, followed by mechanistic characterization of the mode of action. To test for selectivity of the compounds, the IC50 values of the compounds on PvG6PD, PfGluPho, and hG6PD were determined in parallel.
All measurements were performed in 96-well plates, half area (Greiner Bio-One, Frickenhausen, Germany) using a Tecan Infinite M200 plate reader (Maennedorf, Switzerland). The compounds were dissolved in 100% DMSO and afterwards diluted in assay buffer to the required concentrations. Different compound concentrations were added to a mixture of enzyme and NADP^+ in assay buffer. Concentrations of substrates differed depending on the enzyme; an overview is given in the Additional file 4. The reaction was started by adding G6P, and the increase of NADPH was monitored by measuring the absorbance at 340 nm. To increase the sensitivity of the assay, some measurements were reproduced, detecting the fluorescence of NADPH at ex340/em460. […] A negative control containing no compound was defined as 0% inhibition; a positive control lacking the substrate G6P was defined as 100% inhibition. For evaluations using GraphPad Prism and Microsoft Excel, only a linear increase in absorbance/fluorescence was considered. For the mechanistic characterization of the compounds, either NADP^+ or G6P were titrated at different compound concentrations around the IC50, while keeping the second substrate in saturation. The initial slope was plotted as Michaelis–Menten curves and Lineweaver–Burk plots using GraphPad Prism; KM values and Vmax were calculated with GraphPad Prism software.

For CCN1CCC[C@@H]1CNC(=O)c1ccc2c(c1)NC(=O)c1cccc(C)c1S2 [ML304], the “Type of inhibition of PfGluPho towards G6P” value (G6P titrated) was “competes with G6P”, the “Type of inhibition of PfGluPho towards NADP+” value (NADP+ titrated) was “non-competitive inhibitor” and the Ki (competes with G6P, read-out: Ki on PfGluPho towards G6P) was 230 ± 160 nM.
